Assay [1] addresses T1, NAD-dependent protein deacetylase sirtuin-1 (Homo sapiens) (UniProt Q96EB6).
T1 sequence (whole entry): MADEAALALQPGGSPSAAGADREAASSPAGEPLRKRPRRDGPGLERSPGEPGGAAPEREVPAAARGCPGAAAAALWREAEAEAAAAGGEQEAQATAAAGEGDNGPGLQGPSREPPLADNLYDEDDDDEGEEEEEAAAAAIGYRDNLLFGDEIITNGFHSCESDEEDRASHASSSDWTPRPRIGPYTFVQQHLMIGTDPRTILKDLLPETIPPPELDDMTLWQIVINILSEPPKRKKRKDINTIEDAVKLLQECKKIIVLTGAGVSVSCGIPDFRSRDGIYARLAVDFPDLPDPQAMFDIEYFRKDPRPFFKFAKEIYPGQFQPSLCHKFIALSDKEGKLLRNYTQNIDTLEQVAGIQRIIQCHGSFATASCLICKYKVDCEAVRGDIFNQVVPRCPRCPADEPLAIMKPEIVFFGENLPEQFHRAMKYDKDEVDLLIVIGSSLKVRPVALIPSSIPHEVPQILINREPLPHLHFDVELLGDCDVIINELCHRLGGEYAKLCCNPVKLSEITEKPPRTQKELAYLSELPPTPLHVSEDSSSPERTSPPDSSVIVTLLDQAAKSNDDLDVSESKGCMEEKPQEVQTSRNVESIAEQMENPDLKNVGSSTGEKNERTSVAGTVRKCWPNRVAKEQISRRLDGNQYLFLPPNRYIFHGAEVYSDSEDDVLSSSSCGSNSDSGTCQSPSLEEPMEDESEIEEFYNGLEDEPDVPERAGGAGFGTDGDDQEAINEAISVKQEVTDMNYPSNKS
The assay is described as follows: Inhibition of human recombinant SIRT1 using KI-177 as substrate at 5 uM after 30 mins by fluorescence assay.

For assay [2], the target named is Histone deacetylase 4 (Homo sapiens) (UniProt P56524). The assay is described as follows: Inhibition of HDAC4 in human U937 cells at 5 uM […]. It counts as cell-based. The settings on record: U-937.
For assay [3], the target named is T2, Protein deacetylase HDAC6 (Homo sapiens) (UniProt Q9UBN7).
T2 sequence (whole entry): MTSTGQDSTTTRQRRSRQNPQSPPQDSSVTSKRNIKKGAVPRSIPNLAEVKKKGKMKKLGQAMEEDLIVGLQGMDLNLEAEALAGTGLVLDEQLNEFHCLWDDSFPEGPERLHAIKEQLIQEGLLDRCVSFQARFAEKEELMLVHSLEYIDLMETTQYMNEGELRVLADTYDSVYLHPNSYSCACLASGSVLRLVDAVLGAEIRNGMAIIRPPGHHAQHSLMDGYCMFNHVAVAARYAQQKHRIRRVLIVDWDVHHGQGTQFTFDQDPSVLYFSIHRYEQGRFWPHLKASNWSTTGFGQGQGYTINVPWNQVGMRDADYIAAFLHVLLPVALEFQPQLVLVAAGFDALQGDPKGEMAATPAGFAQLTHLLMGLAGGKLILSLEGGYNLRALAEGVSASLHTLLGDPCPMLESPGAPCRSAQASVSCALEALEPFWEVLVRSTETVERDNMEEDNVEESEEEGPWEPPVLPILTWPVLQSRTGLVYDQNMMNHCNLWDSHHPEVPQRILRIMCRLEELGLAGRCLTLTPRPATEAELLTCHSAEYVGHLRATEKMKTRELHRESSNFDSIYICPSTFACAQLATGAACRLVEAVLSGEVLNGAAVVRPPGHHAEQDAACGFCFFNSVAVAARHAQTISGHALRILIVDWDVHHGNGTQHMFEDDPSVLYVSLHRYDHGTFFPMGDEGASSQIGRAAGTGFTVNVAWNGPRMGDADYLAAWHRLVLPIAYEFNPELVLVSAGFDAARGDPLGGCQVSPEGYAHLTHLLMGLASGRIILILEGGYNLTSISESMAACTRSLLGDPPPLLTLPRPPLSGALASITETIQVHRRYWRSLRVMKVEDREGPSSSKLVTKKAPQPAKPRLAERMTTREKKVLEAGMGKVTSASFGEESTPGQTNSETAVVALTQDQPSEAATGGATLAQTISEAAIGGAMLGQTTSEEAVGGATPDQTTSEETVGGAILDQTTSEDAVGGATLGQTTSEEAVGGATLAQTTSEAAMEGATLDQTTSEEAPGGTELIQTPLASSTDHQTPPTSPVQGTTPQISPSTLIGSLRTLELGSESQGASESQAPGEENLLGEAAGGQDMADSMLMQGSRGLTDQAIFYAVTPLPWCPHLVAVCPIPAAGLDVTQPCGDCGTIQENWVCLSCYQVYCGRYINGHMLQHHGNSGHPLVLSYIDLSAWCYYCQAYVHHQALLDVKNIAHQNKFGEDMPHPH
The assay is described as follows: Inhibition of HDAC6 in human U937 cells assessed as induction of alpha-tubulin acetylation at 5 uM after 30 hrs by cytofluorimetric analysis. It counts as cell-based. The settings on record: U-937.

Assay [4] concerns the target Histone deacetylase 1 (Homo sapiens) (UniProt Q13547). Kind of assay: Inhibition of HDAC1 in human U937 cells at 5 uM […]. In kind it is cell-based. The settings on record: U-937.
Assay [5] deals with U-937. Kind of assay: Effect on DNMT1 level in human U937 cells at 0.5 to 5 uM after 24 hrs by Western blot analysis. In kind it is functional, cell-based. In general terms: In western blotting, separated proteins are transferred to a membrane and probed.
The target in assay [6] is T1, NAD-dependent protein deacetylase sirtuin-1 (Homo sapiens). Kind of assay: Inhibition of SIRT1 in human MCF7 cells assessed as p53 acetylation on lysine 382 at 5 uM after 24 hrs by Western blot analysis. It counts as cell-based.
Assay [7] addresses Protein kinase C alpha type (Homo sapiens) (UniProt P17252). The assay is described as follows: Inhibition of PKCalpha in human U937 cells assessed as p21WAF1/CIP1 expression at 5 uM after 30 hrs by cytofluorimetric analysis. The settings on record: U-937. In kind it is cell-based.
Assay [8] has as its target Histone deacetylase (Homo sapiens) (UniProt Q13547+O15379+Q9UBN7+Q92769+Q9UQL6+Q8WUI4+Q9BY41+Q96DB2+P56524+Q9UKV0+Q969S8). Kind of assay: Inhibition of HDAC in human U937 cells assessed as induction of histone H3 acetylation at 5 uM after 30 hrs by cytofluorimetric analysis. In kind it is cell-based. The settings on record: U-937.
Assay [9] has as its target DNA (cytosine-5)-methyltransferase 1 (Homo sapiens) (UniProt P26358). Kind of assay: Inhibition of DNMT1 human U937 cells assessed as reactivation of p16 expression at 5 uM after 24 hrs by Western blot analysis. It counts as cell-based. The settings on record: U-937.
The target is the same in assay [10]. Kind of assay: Inhibition of recombinant DNMT1 using S-adenosyl-L-[methyl-3H]methionine as substrate at 5 uM after 2 hrs by radioactive assay.
Assay [11] deals with U-937. The assay is described as follows: Induction of apoptosis in human U937 cells at 5 uM after 30 hrs. In kind it is functional, cell-based.
Assay [12] relates to U-937. Kind of assay: Induction of cell differentiation in human U937 cells assessed as CD11c expression at 5 uM after 30 hrs by cytofluorimetric analysis. In kind it is functional, cell-based.
In assay [13] the target is T1, NAD-dependent protein deacetylase sirtuin-1 (Homo sapiens). Kind of assay: Inhibition of SIRT1 in human MCF7 cells assessed as p53 acetylation on lysine 382 after 24 hrs by Western blot analysis. It counts as cell-based.
Assay [14] has the same target. Kind of assay: Inhibition of SIRT1 in human U937 cells assessed as H3 acetylation on lysine K56 at 5 uM after 24 hrs by Western blot analysis. In kind it is cell-based. The settings on record: U-937.
The target is the same in assay [15]. The assay is described as follows: Inhibition of SIRT1 in human U937 cells assessed as H3 acetylation on lysine K9 at 5 uM after 24 hrs by Western blot analysis. It counts as cell-based. The settings on record: U-937.
The target of assay [16] is DNA (cytosine-5)-methyltransferase 1 (Homo sapiens) (UniProt P26358). The assay is described as follows: Inhibition of DNMT1 human u937 cells assessed as reactivation of p16 expression at 0.5 to 5 uM after 24 hrs by Western blot analysis.
Another assay has as its system AML. The assay is described as follows: Induction of apoptosis in AML patient blasts at 5 uM after 26 hrs. It counts as functional. The settings on record: Homo sapiens.
Assay [17] can be described thus: Cell cycle arrest in apoptosis in AML patient blasts at 5 uM after 26 hrs. In kind it is functional. The settings on record: Homo sapiens.

The source made the active and inactive calls. The calls are words filed in the database; no cut-off is given here.

Sequence of Histone deacetylase 1 (Homo sapiens) (Q13547 whole entry): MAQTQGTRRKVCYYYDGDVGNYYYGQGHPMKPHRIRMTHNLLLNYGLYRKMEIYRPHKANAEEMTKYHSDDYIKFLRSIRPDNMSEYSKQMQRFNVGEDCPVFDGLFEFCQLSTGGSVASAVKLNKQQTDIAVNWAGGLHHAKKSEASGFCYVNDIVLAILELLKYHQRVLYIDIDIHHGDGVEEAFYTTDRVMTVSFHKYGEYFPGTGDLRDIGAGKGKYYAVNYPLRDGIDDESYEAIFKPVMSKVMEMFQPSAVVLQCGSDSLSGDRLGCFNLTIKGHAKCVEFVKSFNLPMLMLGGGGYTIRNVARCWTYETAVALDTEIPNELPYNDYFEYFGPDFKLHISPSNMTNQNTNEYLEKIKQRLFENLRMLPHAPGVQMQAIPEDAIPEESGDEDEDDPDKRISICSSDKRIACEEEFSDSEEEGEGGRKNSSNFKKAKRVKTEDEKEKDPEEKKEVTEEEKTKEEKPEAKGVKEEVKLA
Sequence of DNA (cytosine-5)-methyltransferase 1 (Homo sapiens) (P26358 whole entry): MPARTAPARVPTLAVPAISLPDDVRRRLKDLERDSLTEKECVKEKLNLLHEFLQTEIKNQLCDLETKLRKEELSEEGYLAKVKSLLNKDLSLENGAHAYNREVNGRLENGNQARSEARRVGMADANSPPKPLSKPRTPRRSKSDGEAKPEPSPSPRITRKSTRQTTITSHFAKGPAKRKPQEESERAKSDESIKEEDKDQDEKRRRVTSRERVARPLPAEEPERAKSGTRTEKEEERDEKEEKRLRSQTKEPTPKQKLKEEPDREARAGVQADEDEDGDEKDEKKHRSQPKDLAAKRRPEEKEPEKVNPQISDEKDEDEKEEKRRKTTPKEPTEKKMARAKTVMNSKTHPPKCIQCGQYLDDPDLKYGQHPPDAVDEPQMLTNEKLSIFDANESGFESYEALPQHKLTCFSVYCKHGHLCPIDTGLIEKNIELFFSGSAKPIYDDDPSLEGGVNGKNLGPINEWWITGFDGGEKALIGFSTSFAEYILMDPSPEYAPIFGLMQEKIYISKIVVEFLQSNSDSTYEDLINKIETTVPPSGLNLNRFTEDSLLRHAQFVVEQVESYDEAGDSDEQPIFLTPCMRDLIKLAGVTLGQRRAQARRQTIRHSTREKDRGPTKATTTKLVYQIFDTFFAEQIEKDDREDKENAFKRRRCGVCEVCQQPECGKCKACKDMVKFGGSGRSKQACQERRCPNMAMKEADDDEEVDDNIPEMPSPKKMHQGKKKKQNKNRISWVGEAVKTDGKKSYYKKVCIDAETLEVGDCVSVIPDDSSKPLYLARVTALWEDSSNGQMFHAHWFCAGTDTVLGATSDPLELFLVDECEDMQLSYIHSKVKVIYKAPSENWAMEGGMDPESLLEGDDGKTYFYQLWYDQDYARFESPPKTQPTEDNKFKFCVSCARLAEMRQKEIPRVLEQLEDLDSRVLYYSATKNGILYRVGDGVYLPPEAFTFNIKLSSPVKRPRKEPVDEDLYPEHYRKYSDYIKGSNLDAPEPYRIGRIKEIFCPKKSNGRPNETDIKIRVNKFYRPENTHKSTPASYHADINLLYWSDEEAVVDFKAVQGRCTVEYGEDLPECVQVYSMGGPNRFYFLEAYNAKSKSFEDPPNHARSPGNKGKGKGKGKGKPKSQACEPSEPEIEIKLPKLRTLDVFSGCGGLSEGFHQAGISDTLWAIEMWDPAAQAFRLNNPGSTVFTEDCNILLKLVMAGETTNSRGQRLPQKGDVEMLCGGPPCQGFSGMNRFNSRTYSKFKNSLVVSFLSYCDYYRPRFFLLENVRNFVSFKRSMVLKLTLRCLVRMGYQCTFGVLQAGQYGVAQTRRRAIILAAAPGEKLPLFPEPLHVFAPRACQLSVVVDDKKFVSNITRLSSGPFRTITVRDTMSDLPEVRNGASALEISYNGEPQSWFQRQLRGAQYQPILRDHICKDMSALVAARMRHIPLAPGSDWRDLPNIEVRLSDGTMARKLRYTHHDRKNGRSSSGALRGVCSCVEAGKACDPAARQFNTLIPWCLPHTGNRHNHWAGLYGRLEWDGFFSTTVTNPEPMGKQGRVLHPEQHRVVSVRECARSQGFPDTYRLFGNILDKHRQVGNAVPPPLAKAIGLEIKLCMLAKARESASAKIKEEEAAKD
Sequence of Histone deacetylase 4 (Homo sapiens) (P56524 whole entry): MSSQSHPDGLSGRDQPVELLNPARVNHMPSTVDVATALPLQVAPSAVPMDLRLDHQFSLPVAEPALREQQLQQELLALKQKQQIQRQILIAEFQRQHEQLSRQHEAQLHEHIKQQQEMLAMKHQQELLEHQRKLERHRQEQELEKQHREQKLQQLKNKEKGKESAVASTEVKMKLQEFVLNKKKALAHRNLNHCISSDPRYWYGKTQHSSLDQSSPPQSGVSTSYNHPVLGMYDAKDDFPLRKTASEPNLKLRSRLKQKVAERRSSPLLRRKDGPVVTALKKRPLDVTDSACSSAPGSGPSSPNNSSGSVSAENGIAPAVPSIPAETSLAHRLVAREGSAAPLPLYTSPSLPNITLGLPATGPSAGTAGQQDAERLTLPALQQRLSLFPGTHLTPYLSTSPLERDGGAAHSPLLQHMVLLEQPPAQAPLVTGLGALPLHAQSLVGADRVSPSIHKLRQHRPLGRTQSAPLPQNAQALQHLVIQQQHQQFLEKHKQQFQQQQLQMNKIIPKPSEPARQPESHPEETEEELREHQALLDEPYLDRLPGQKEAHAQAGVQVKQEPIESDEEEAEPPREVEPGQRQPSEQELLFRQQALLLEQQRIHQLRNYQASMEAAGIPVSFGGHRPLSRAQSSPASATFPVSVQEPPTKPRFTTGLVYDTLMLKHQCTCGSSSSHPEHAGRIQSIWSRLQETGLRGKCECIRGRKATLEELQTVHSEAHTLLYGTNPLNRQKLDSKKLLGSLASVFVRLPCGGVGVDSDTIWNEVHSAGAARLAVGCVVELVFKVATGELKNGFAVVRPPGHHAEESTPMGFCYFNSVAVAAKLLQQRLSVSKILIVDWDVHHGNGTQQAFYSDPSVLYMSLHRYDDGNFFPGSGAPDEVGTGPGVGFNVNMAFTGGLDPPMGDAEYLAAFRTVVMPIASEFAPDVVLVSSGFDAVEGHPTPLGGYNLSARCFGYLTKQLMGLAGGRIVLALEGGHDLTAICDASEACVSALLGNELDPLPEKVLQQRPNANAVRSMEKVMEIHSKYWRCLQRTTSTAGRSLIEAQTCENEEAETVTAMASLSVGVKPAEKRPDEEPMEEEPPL

As a reminder, the inhibition is the percentage by which the read-out fell short of the control. On to `O=C(NCCSSCCNC(=O)/C(Cc1c[nH]c2ccccc12)=N/O)/C(Cc1c[nH]c2ccccc12)=N/O`, for which the inhibition result in [1], in assay [3], in assay [6], in assay [7] and in assay [8] was “Active” in each case. In addition, the inhibition came out at 20% in assay [2] and 40% in [4]. Also, the result with U-937 [5] was inactive.
In the case of `O=C(NCCSSCCNC(=O)/C(Cc1c[nH]c2ccc(OCc3ccccc3)cc12)=N/O)/C(Cc1c[nH]c2ccc(OCc3ccccc3)cc12)=N/O`, the inhibition entry in [2], in [3], in assay [9], in assay [4], in assay [10] and in [7] was “Active” throughout. The inhibition entry in [8] is “Active”. The outcome in the assay with U-937 [5] was inactive. Also, the outcome in the assay with U-937 [11] and in the assay on U-937 [12] was Active. Moreover, the inhibition result in assay [13] was “Dose-dependent effect”.
Consider `O=C(NCCSSCCNC(=O)/C(Cc1cn(Cc2ccc(Br)cc2)c2ccc(Br)cc12)=N/O)/C(Cc1cn(Cc2ccc(Br)cc2)c2ccc(Br)cc12)=N/O`, for which the inhibition entry in assay [1], in [14], in [3] and in assay [15] was “Active” in each case. The outcome in the assay on U-937 [5] was inactive.
Take `CO/N=C(\Cc1c[nH]c2ccc(Br)cc12)C(=O)NCCSSCCNC(=O)/C(Cc1c[nH]c2ccc(Br)cc12)=N/OC`: the inhibition result in assay [2], in assay [3], in [4], in [10] and in assay [16] was “Active” in each case. In addition, in the assay on U-937 [5], the result was inactive.
Take `COCCNC(=O)/C(Cc1c[nH]c2ccc(Br)cc12)=N/O`: the inhibition result in assay [1], in assay [14] and in assay [15] was “inactive” each time. In addition, in assay [3], the inhibition entry is “Active”. Further, in the assay on U-937 [5], the outcome was inactive.
Consider `O=C(NCCCCSSCCCCNC(=O)/C(Cc1c[nH]c2ccc(Br)cc12)=N/O)/C(Cc1c[nH]c2ccc(Br)cc12)=N/O`, for which the inhibition result in [1], in assay [6] and in assay [8] was “inactive” in each case. In addition, the inhibition stood at 20% in [2] and 40% in assay [4]. In addition, the inhibition entry in [14], in [3], in assay [15] and in [16] was “Active” each time. Also, the result in the assay on U-937 [5] was inactive. Further, the outcome in the assay with U-937 [11] and with U-937 [12] was Active.
As to `O=C(NCCCCCCCCNC(=O)/C(Cc1c[nH]c2ccc(Br)cc12)=N/O)/C(Cc1c[nH]c2ccc(Br)cc12)=N/O`, the inhibition entry in [1], in assay [14], in [3], in [15] and in [16] was “Active” throughout. The inhibition entry in assay [10] was “inactive”. Further, in the assay on U-937 [5], the outcome was inactive.
With `O=C(CCc1c[nH]c2ccc(Br)cc12)NCCSSCCNC(=O)CCc1c[nH]c2ccc(Br)cc12`, the inhibition entry in assay [3], in assay [4], in [7] and in assay [8] was “Active” in each case. Besides, the inhibition result in assay [10] was “inactive”. For the same compound, the outcome in the assay with U-937 [5] was inactive. Further, the outcome in the assay on U-937 [11] was Active. Besides, the inhibition entry in assay [13] was “Dose-dependent effect”.
Take `O=C(NCCO)/C(Cc1c[nH]c2ccc(Br)cc12)=N/O`: the inhibition result in [1], in assay [14] and in assay [15] was “inactive” in each case. Also, the inhibition entry in assay [3] and in [9] was “Active” throughout. For the same compound, the result in the assay on U-937 [5] was inactive. The inhibition entry in [13] is “Dose-dependent effect”.
As to `O=C(NCCSSCCNC(=O)/C(Cc1ccc(O)c(Br)c1)=N/O)/C(Cc1ccc(O)c(Br)c1)=N/O`, the inhibition entry in [3] was “Active”. Further, the outcome (in the assay with AML; in assay [17]; in the assay with U-937 [11]) was Active.
For `Cn1cc(C/C(=N\O)C(=O)NCCSSCCNC(=O)/C(Cc2cn(C)c3ccc(Br)cc23)=N/O)c2cc(Br)ccc21`, the inhibition result in [1] and in assay [10] was “inactive” each time. The inhibition result in [14], in assay [3], in assay [9], in assay [4], in assay [15] and in [7] was “Active” in each case. The inhibition entry in assay [16] and in [8] was “Active” each time. Also, the outcome with U-937 [5] was inactive. Moreover, the result in the assay on U-937 [11] and in the assay on U-937 [12] was Active. Besides, the inhibition result in [13] was “Dose-dependent effect”.

Values taken from ChEMBL document CHEMBL2177007, “Indole-derived psammaplin A analogues as epigenetic modulators with multiple inhibitory activities” (J Med Chem, 2012).
